The source of these data is PubChem BioAssay AID1259407 (Chemical Carcinogenesis Research Information System (CCRIS), 2018).

The subject of this data set is CCRIS mutagenicity, Ames/micronucleus/aberration tests. Nature of the data set: CCRIS mutagenicity studies.
[1] abbreviates: Test System: AMES SALMONELLA TYPHIMURIUM, Strain/Indicator: TA98, Metabolic Activation: NONE, Method: STANDARD PLATE.
The mark [2] stands for this setting: Test System: AMES SALMONELLA TYPHIMURIUM, Strain/Indicator: TA98, Metabolic Activation: RAT, LIVER, S-9, AROCLOR 1254, Method: STANDARD PLATE.
Setting [3] is: Test System: AMES SALMONELLA TYPHIMURIUM, Strain/Indicator: TA100, Metabolic Activation: NONE, Method: STANDARD PLATE.
The mark [4] stands for this setting: Test System: AMES SALMONELLA TYPHIMURIUM, Strain/Indicator: TA100, Metabolic Activation: RAT, LIVER, S-9, AROCLOR 1254, Method: STANDARD PLATE.

Active and inactive are the calls of the source. The rule behind the calls is not given here.

As for `Cc1cc(=O)c2c(O)c3c(O)cc(O)c4c5c(O)cc(O)c6c(O)c7c(=O)cc(C)c8c1c2c(c34)c(c65)c78`, the mutagenic call was “inactive; negative” under setting [1], “inactive; negative” under setting [2], “inactive; negative” under setting [3] and “inactive; negative” under setting [4].
On to `CC(=O)N(O)c1ccc(Oc2ccc(Cl)cc2)cc1`, for which the mutagenic call runs as follows: (Test System: AMES SALMONELLA TYPHIMURIUM, Strain/Indicator: TA100, Metabolic Activation: GUINEA PIG, LIVER, MICROSOMAL FRACTION, PCB) “active; positive”; (Test System: AMES SALMONELLA TYPHIMURIUM, Strain/Indicator: TA100, Metabolic Activation: GUINEA PIG, LIVER, S-9, PCB) “active; positive”; (Test System: AMES SALMONELLA TYPHIMURIUM, Strain/Indicator: TA100, Metabolic Activation: GUINEA PIG, LIVER, S-105, PCB) “active; positive”; under setting [3], “inactive; negative”; (Test System: AMES SALMONELLA TYPHIMURIUM, Strain/Indicator: TA100, Metabolic Activation: RAT, LIVER, S-9, KANECLOR 500, Method: STANDARD PLATE) “active; positive”.
Regarding `Cc1cc2c(C)c3ccccc3c(C)c2cc1C`, the mutagenic call was “active; positive” under setting [1], “active; positive” under setting [2], “inactive; negative” under setting [3] and “active; positive” under setting [4].
Take `Nc1cc(Cl)nc(C(=O)O)c1Cl`: the mutagenic call by setting is: (End Point: In vitro chromosomal aberrations, Test System: Primary rat lymphocytes, Metabolic Activation: Rodent S-9) “inactive; negative”; (Test System: Ames Salmonella typhimurium, Strain/Indicator: TA98, Metabolic Activation: None, Method: Preincubation) “inactive; negative; purity 94.5%”; (Test System: Ames Salmonella typhimurium, Strain/Indicator: TA98, Metabolic Activation: Rat, Liver, S-9, Aroclor 1254, Method: Preincubation) “inactive; negative; purity 94.5%”; (Test System: Ames Salmonella typhimurium, Strain/Indicator: TA100, Metabolic Activation: None, Method: Preincubation) “inactive; negative; purity 94.5%”; (Test System: Ames Salmonella typhimurium, Strain/Indicator: TA100, Metabolic Activation: Rat, Liver, S-9, Aroclor 1254, Method: Preincubation) “inactive; negative; purity 94.5%”; (Test System: Ames Salmonella typhimurium, Strain/Indicator: TA1535, Metabolic Activation: None, Method: Preincubation) “inactive; negative; purity 94.5%”. Further, the mutagenic call is “inactive; negative; purity 94.5%” (Test System: Ames Salmonella typhimurium, Strain/Indicator: TA1535, Metabolic Activation: Rat, Liver, S-9, Aroclor 1254, Method: Preincubation); “inactive; negative; purity 94.5%” (Test System: Ames Salmonella typhimurium, Strain/Indicator: TA1537, Metabolic Activation: None, Method: Preincubation); “inactive; negative; purity 94.5%” (Test System: Ames Salmonella typhimurium, Strain/Indicator: TA1537, Metabolic Activation: Rat, Liver, S-9, Aroclor 1254, Method: Preincubation); “inactive; negative” (Test System: Chinese hamster ovary cells, Strain/Indicator: CHO-K1-BH4/HGPRT, Metabolic Activation: None, Method: Forward mutation assay); “inactive; negative; purity 94.5%” (Test System: Chinese hamster ovary cells, Strain/Indicator: CHO-K1-BH4/HGPRT, Metabolic Activation: Rat, Liver, S-9, Aroclor 1254, Method: Forward mutation assay); “inactive; negative” (Test System: E. coli, Strain/Indicator: WP2 UVR A, Metabolic Activation: None, Method: Preincubation). The mutagenic call (Test System: E. coli, Strain/Indicator: WP2 UVRA, Metabolic Activation: Rat, Liver, S-9, Aroclor 1254, Method: Preincubation) is “inactive; negative”.
As to `CC1(C)C(C=C(Cl)Cl)C1C(=O)OCc1cccc(Oc2ccccc2)c1` (stereo not drawn), the mutagenic call was “inactive; negative” (Test System: AMES SALMONELLA TYPHIMURIUM, Strain/Indicator: TA97A, Metabolic Activation: NONE, Method: STANDARD PLATE); “inactive; negative” (Test System: AMES SALMONELLA TYPHIMURIUM, Strain/Indicator: TA97A, Metabolic Activation: RAT, CECAL CELL FREE EXTRACT, Method: STANDARD PLATE); “inactive; negative” (Test System: AMES SALMONELLA TYPHIMURIUM, Strain/Indicator: TA97A, Metabolic Activation: RAT, LIVER, S-9, AROCLOR 1254, Method: STANDARD PLATE); “active; positive” (Test System: AMES SALMONELLA TYPHIMURIUM, Strain/Indicator: TA98, Metabolic Activation: NONE); “inactive; negative” (Test System: AMES SALMONELLA TYPHIMURIUM, Strain/Indicator: TA98, Metabolic Activation: NONE, Method: MICROSUSPENSION); “inactive; negative” under setting [1]. Moreover, the mutagenic call was “inactive; negative” (Test System: AMES SALMONELLA TYPHIMURIUM, Strain/Indicator: TA98, Metabolic Activation: RAT, CECAL CELL FREE EXTRACT, Method: STANDARD PLATE); “inactive; negative” under setting [2]; “inactive; negative” (Test System: AMES SALMONELLA TYPHIMURIUM, Strain/Indicator: TA98, Metabolic Activation: RAT, LIVER, S-9, POLYCHLORINATED BIPHENYLS); “inactive; negative” (Test System: AMES SALMONELLA TYPHIMURIUM, Strain/Indicator: TA98, Metabolic Activation: S-9, Method: MICROSUSPENSION); “inactive; negative” (Test System: AMES SALMONELLA TYPHIMURIUM, Strain/Indicator: TA100); “inactive; negative” (Test System: AMES SALMONELLA TYPHIMURIUM, Strain/Indicator: TA100, Metabolic Activation: NONE). Further, the mutagenic call (Test System: AMES SALMONELLA TYPHIMURIUM, Strain/Indicator: TA100, Metabolic Activation: NONE, Method: MICROSUSPENSION) was “inactive; negative”; the mutagenic call under setting [3] was “inactive; negative”; the mutagenic call (Test System: AMES SALMONELLA TYPHIMURIUM, Strain/Indicator: TA100, Metabolic Activation: RAT, CECAL CELL FREE EXTRACT, Method: STANDARD PLATE) is “inactive; negative”; the mutagenic call under setting [4] is “inactive; negative”; the mutagenic call (Test System: AMES SALMONELLA TYPHIMURIUM, Strain/Indicator: TA100, Metabolic Activation: S-9, Method: MICROSUSPENSION) is “inactive; negative”; the mutagenic call (Test System: AMES SALMONELLA TYPHIMURIUM, Strain/Indicator: TA1535, Metabolic Activation: NONE, Method: STANDARD PLATE) was “inactive; negative”. Further, the mutagenic call is, setting by setting: (Test System: AMES SALMONELLA TYPHIMURIUM, Strain/Indicator: TA1535, Metabolic Activation: RAT, LIVER, S-9, AROCLOR 1254, Method: STANDARD PLATE) “inactive; negative”; (Test System: AMES SALMONELLA TYPHIMURIUM, Strain/Indicator: TA1537, Metabolic Activation: NONE, Method: STANDARD PLATE) “inactive; negative”; (Test System: AMES SALMONELLA TYPHIMURIUM, Strain/Indicator: TA1537, Metabolic Activation: RAT, LIVER, S-9, AROCLOR 1254, Method: STANDARD PLATE) “inactive; negative”; (Test System: CHINESE HAMSTER V-79, Strain/Indicator: V-79/6-THIOGUANINE, Metabolic Activation: NONE, Method: STANDARD PLATE) “inactive; negative”; (Test System: CHINESE HAMSTER V-79, Strain/Indicator: V-79/6-THIOGUANINE, Metabolic Activation: RAT HEPATOCYTES, Method: STANDARD PLATE) “inactive; negative”; (Test System: CHINESE HAMSTER V-79, Strain/Indicator: V-79/OUABAIN, Metabolic Activation: NONE, Method: STANDARD PLATE) “inactive; negative”. Also, the mutagenic call (Test System: CHINESE HAMSTER V-79, Strain/Indicator: V-79/OUABAIN, Metabolic Activation: RAT HEPATOCYTES, Method: STANDARD PLATE) was “inactive; negative”; the mutagenic call (Test System: E. COLI, Strain/Indicator: WP2, Metabolic Activation: NONE, Method: STANDARD PLATE) was “inactive; negative”; the mutagenic call (Test System: E. COLI, Strain/Indicator: WP2, Metabolic Activation: RAT, LIVER, S-9, AROCLOR 1254, Method: STANDARD PLATE) was “inactive; negative”.
